# Laboratory results taken from patent publication US8481539B2, “Alkynylaryl compounds and salts thereof, pharmaceutical compositions comprising same, methods of preparing same and uses of same” (Bayer Intellectual Property GmbH, priority 2007, dated 2013).
# Molecular target: T1, Tie-2 (Homo sapiens, UniProt Q02763)
# T1 construct: fusion protein of GST and the intracellular domains of Tie-2; GST; made in house; host or cells: insect cells (Hi-5)
# Assay: Tie-2-Kinase HTRF-Assay (assay 2)
# Type: biochemical
# Details: pIC50 class; 10 μM ATP; read-out: Enzymatic Tie 2 activity (assay 2)
# Text: Tie2-inhibitory activity of compounds of the present invention was quantified employing two Tie2 HTRF assay as described in the following paragraphs.
# A recombinant fusion protein of GST and the intracellular domains of Tie-2, expressed in insect cells (Hi-5) and purified by Glutathion-Sepharose affinity chromatography was used as kinase. Alternatively, commercially available GST-Tie2-fusion protein (Upstate Biotechnology, Dundee, Scotland) can be used As substrate for the kinase reaction the biotinylated peptide biotin-Ahx-EPKDDAYPLYSDFG (C-terminus in amid form) was used which can be purchased e.g. from the company Biosynthan GmbH (Berlin-Buch, Germany). Detection of phosphorylated product is achieved specifically by a trimeric detection complex consisting of the phosphorylated substrate, streptavidin-XLent (SA-XLent) which binds to biotin, and Europium Cryptate-labeled anti-phosphotyrosine antibody PT66 which binds to phosphorylated tyrosine.
# Tie-2 (3.5 ng/measurement point) was incubated for 60 min at 22° C. in the presence of 10 μM adenosine-tri-phosphate (ATP) and 1 μM substrate peptide (biotin-Ahx-EPKDDAYPLYSDFG-NH2) with different concentrations of test compounds (0 μM and concentrations in the range 0.001-20 μM) in 5 μl assay buffer [50 mM Hepes/NaOH pH 7, 10 mM MgCl2, 0.5 mM MnCl2, 1.0 mM dithiothreitol, 0.01% NP40, protease inhibitor mixture (“Complete w/o EDTA” from Roche, 1 tablet per 2.5 ml), 1% (v/v) dimethylsulfoxide]. The reaction was stopped by the addition of 5 μl of an aqueous buffer (25 mM Hepes/NaOH pH 7.5, 0.28% (w/v) bovine serum albumin) containing EDTA (90 mM) and the HTRF (Homogeneous Time Resolved Fluorescence) detection reagents streptavidine-XLent (0.2 μM, from Cis Biointemational, Marcoule, France) and PT66-Eu-Chelate (0.3 ng/μl; a europium-chelate labelled anti-phospho-tyrosine antibody from Perkin Elmer).
# The resulting mixture was incubated 1 h at 22° C. to allow the binding of the biotinylated phosphorylated peptide to the streptavidine-XLent and the PT66-Eu-Chelate. Subsequently the amount of phosphorylated substrate peptide was evaluated by measurement of the resonance energy transfer from the PT66-Eu-Chelate to the streptavidine-XLent. Therefore, the fluorescence emissions at 620 nm and 665 nm after excitation at 350 nm was measured in a HTRF reader, e.g. a Rubystar (BMG Labtechnologies, Offenburg, Germany) or a Viewlux (Perkin-Elmer). The ratio of the emissions at 665 nm and at […] was taken as the measure for the amount of phosphorylated substrate peptide. The data were normalised (enzyme reaction without inhibitor=0 (% inhibition, all other assay components but no enzyme=100% inhibition) and IC50 values were calculated by a 4 parameter fit using an inhouse software.
# T1 sequence (Q02763 770-1124 limits assumed, species assumed): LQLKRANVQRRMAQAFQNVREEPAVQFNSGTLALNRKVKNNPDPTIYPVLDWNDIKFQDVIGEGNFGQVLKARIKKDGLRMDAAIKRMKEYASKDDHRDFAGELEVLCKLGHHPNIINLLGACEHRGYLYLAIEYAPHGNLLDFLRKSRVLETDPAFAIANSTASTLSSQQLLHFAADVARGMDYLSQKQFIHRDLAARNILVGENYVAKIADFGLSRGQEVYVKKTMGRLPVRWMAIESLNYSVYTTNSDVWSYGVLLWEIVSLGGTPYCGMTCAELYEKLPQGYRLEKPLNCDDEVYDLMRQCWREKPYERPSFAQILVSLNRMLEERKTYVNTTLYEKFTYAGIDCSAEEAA
row,IC50 [nM],SMILES
1,< 1000,"Cc1ccc(NC(=O)c2cccc(C(F)(F)F)c2)cc1C#Cc1cncc2c1cnn2C [Example 1.6, N-[4-Methyl-3-(1-methyl-1H-pyrazolo[3,4-c]pyridin-4-ylethynyl)-phenyl]-3-trifluoromethyl-benzamide]"
2,< 1000,"Cn1ncc2c(C#Cc3cccc(NC(=O)c4cccc(C(F)(F)F)c4)c3)cncc21 [Example 1.5, N-[3-(1-Methyl-1H-pyrazolo[3,4-c]pyridin-4-ylethynyl)-phenyl]-3-trifluoromethyl-benzamide]"
3,< 1000,"Cn1ncc2c(C#Cc3cc(NC(=O)c4cccc(C(F)(F)F)c4)ccc3F)cncc21 [Example 1.9, N-[4-Fluoro-3-(1-methyl-1H-pyrazolo[3,4-c]pyridin-4-ylethynyl)-phenyl]-3-trifluoromethyl-benzamide]"
4,< 1000,"Cc1ccc(NC(=O)Nc2cccc(C(F)(F)F)c2)cc1C#Cc1cncc2c1cnn2C [Example 2.4, 1-[4-Methyl-3-(1-methyl-1H-pyrazolo[3,4-c]pyridin-4-ylethynyl)-phenyl]-3-(3-trifluoromethyl-phenyl)-urea]"
5,< 1000,"Cn1ncc2c(C#Cc3cccc(NC(=O)Nc4ccccc4)c3)cncc21 [Example 2.1, 1-[3-(1-Methyl-1H-pyrazolo[3,4-c]pyridin-4-ylethynyl)-phenyl]-3-phenyl-urea]"
